Laboratory results as given in PubChem BioAssay (NCI).
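Tested at 5 concentrations; 48 h exposure; 96-well plates; endpoints linearly interpolated, else capped at highest concentration. TGI: total growth inhibition.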

Key:
Assay in all cases: growth of human tumour cells (NCI), 48 h
CCRF-CEM leukemia = tested on: CCRF-CEM leukemia
HCC-2998 colon = tested on: HCC-2998 colon
SF-539 CNS = tested on: SF-539 CNS
IGROV1 ovarian = tested on: IGROV1 ovarian
BT-549 breast = tested on: BT-549 breast
SK-OV-3 ovarian = tested on: SK-OV-3 ovarian
NCI-H226 lung = tested on: NCI-H226 lung
OVCAR-3 ovarian = tested on: OVCAR-3 ovarian
786-0 renal = tested on: 786-0 renal
RXF 393 renal = tested on: RXF 393 renal
M14 melanoma = tested on: M14 melanoma
KM12 colon = tested on: KM12 colon
SNB-75 CNS = tested on: SNB-75 CNS
DU-145 prostate = tested on: DU-145 prostate
HCT-116 colon = tested on: HCT-116 colon
SW-620 colon = tested on: SW-620 colon
EKVX NSCLC = tested on: EKVX NSCLC
MOLT-4 leukemia = tested on: MOLT-4 leukemia
HOP-62 NSCLC = tested on: HOP-62 NSCLC
SK-MEL-2 melanoma = tested on: SK-MEL-2 melanoma
HS 578T breast = tested on: HS 578T breast
MDA-MB-231 breast = tested on: MDA-MB-231 breast
COLO 205 colon = tested on: COLO 205 colon
UO-31 renal = tested on: UO-31 renal
OVCAR-5 ovarian = tested on: OVCAR-5 ovarian
K-562 leukemia = tested on: K-562 leukemia
HCT-15 colon = tested on: HCT-15 colon
MDA-MB-435 = tested on: MDA-MB-435
HL-60(TB) leukemia = tested on: HL-60(TB) leukemia
MALME-3M melanoma = tested on: MALME-3M melanoma
UACC-62 melanoma = tested on: UACC-62 melanoma
PC-3 prostate = tested on: PC-3 prostate
A549 NSCLC = tested on: A549 NSCLC
TK-10 renal = tested on: TK-10 renal
CAKI-1 renal = tested on: CAKI-1 renal
SK-MEL-5 melanoma = tested on: SK-MEL-5 melanoma
UACC-257 melanoma = tested on: UACC-257 melanoma
SF-268 CNS = tested on: SF-268 CNS
NCI/ADR-RES ovarian = tested on: NCI/ADR-RES ovarian
NCI-H23 lung = tested on: NCI-H23 lung
SK-MEL-28 melanoma = tested on: SK-MEL-28 melanoma
HT29 colon = tested on: HT29 colon
RPMI-8226 leukemia = tested on: RPMI-8226 leukemia
HOP-92 NSCLC = tested on: HOP-92 NSCLC
OVCAR-4 ovarian = tested on: OVCAR-4 ovarian
NCI-H460 lung = tested on: NCI-H460 lung
A498 renal = tested on: A498 renal
U251 CNS = tested on: U251 CNS
MDA-N = tested on: MDA-N
SF-295 CNS = tested on: SF-295 CNS
SN12C renal = tested on: SN12C renal
T-47D breast = tested on: T-47D breast
MCF7 breast = tested on: MCF7 breast
SR leukemia = tested on: SR leukemia
SNB-19 CNS = tested on: SNB-19 CNS
NCI-H522 lung = tested on: NCI-H522 lung
OVCAR-8 ovarian = tested on: OVCAR-8 ovarian
ACHN renal = tested on: ACHN renal

Measured: TGI

COc1ccc(N2CCOCC2)cc1
> 100 µM: all assays above
